Measured values published in EP1463487B1, “LIPOSOMAL DELIVERY OF VITAMIN E BASED COMPOUNDS” (RESEARCH DEVELOPMENT FOUNDATION, priority 2001, dated 2003).
Entries after “also recorded” stand apart in the source; their conditions may differ.

Key:
66 cl.4-GFP tumors = assay: TUNEL assay for apoptosis in tumor sections in vivo; parameters: species or system Balb/c mice
From the text: Deparaffinized sections (5 µm) of tumor tissue were used to assess apoptosis using reagents supplied in the ApopTag In Situ Apoptosis Detection kit (Intergen, Purchase, NY) according to the manufacturer's instructions. Nuclei that stained brown were scored as positive for apoptosis and those that stained blue were scored as negative. At least sixteen 400X microscopic fields were scored per tumor. Data are presented as the mean ± S. E number of apoptotic cells counted in three separate tumors from each group. Pictures of tumor tissue were taken at 1000X magnification.

66 cl.4-GFP cells [1] = assay: Apoptosis by morphological evaluation of DAPI-stained nuclei; type: cell-based, mouse; conditions: for apoptosis: three days
[2] = tested on: Poly (ADP-Ribose) Polymerase (PARP); assay: Western immunoblot detection of PARP cleavage fragment; type: cell-based, mouse; conditions: 48 hours
Description: Poly (ADP-Ribose) Polymerase cleavage was analyzed as an alternate method for detecting apoptosis. 66 cl.4-GFP cells were treated as described above for the DAPI assay. Following the PBS wash, cells were suspended in lysis buffer (1X PBS, 1% Nonidet P-40, 0.5% sodium deoxycholate, 0.1% sodium dodecyl sulfate (SDS), 1 µg/ml leupeptin, 1 µg/ml aprotinin, 1mM dithiothreitol (DTT), 2 mM sodium orthovanadate, 10 µg/ml phenylmethylsulfonyl fluoride (PMSF)) for 30 min at 4°C, vortexed, and supernatants collected by centrifugation at 15,000 X g for 20 min. Protein concentrations were determined using the Bio-Rad (Bradford) protein assay (Bio-Rad Laboratories, Hercules, CA), and samples (100 µg/lane) resolved on 7.5% SDS-polyacrylamide gels electrophoresed under reducing conditions.
Proteins were electroblotted onto a nitrocellulose membrane (0.2 µM pore Optitran BA-S-supported nitrocellulose; Schleicher and Schuell, Keene, NH). After transfer, membranes were blocked with blocking buffer [25 mM Tris-HCl (pH 8.0), 125 mM NaCl, 0.5% Tween-20, and 5% non-fat dry milk] for 45 min at room temperature. Immunoblotting was performed using 1 µg of primary rabbit anti-human Poly (ADP-Ribose) Polymerase antibody [PARP (H-250), Santa Cruz Biotechnology, Santa Cruz, CA], and horseradish peroxidase-conjugated goat anti-rabbit immunoglobulin was used as the secondary antibody (Jackson Immunoresearch Laboratory, West Grove, PA) at a 1:3,000 dilution. Horseradish peroxidase-labeled bands from washed blots were detected by enhanced chemiluminescence (Pierce, Rockford, IL) and autoradiography (Kodak BioMax film; Rochester, NY).

66 cl.4-GFP cells [3] = assay: Colony-forming assay; type: cell-based, mouse; conditions: 10 days
Description: 66 cl.4-GFP cells were seeded at 600 cells per 35 X 1 0 mm tissue culture plate (Nunclon, Rochester, NY) and allowed to adhere over night at 37° C. […] Treatments were left on the cells for 10 days without change of media. After 10 days, media were removed and plates were washed with PBS three times. Cells were stained for 30 min with 1% methylene blue in PBS and colonies > 0.5 mm manually counted.

[4] = Body weight and long term safety of α-TEA treated mice; type: in vivo, Balb/c mice
Description: (§1) 50 mice were assigned (10 per group) to aerosol treatment, aerosol control, oral treatment, oral control, or to the no treatment group so that the average tumor volume for all groups were closely matched. […] Tumors were measured using calipers every other day, and volumes were calculated using the formula: volume (mm^3) = [width (mm)^2 X length (mm)] /2. Body weights were determined weekly.
Balb/c mice, 10/group (4 groups, 40 mice total) are inoculated with 200,000 66 cl.4 GFP cells as described on day 0. Nine days after tumor inoculation, treatments groups are initiated: Aerosol Treatment (TX) = aerosol delivery of α-TEA liposome (5 mg/mouse)/daily through day 23. Aerosol Control = Aerosol delivery of liposome composition only daily through day 23. Gavage treatment = gavage administration of α-TEA at 5 mg/mouse in ethanol/peanut oil daily through day 23. Gavage control = gavage administration of ethanol/peanut oil only through day 23. Mice were weighed at the initiation of treatment (day 9) and thereafter on days 13, 16, 20, and 23 (Fig. 6). Data are presented as the mean +/- standard deviation.

[5] = Serum and tissue levels of α-TEA after liposomal aerosol treatment (HPLC); type: in vivo, balb/c mice; conditions: aerosol 5 mg/mouse over 30 minutes
Description: Tumors were removed during necropsy and half of each tumor was quick frozen in liquid nitrogen then stored at -70°C until HPLC analyses were performed. Tumors were processed for HPLC analyses by homogenization and hexane extraction of lipids. Briefly, weighed tumors were placed in 5 ml disposable conical-bottom tubes (Sarstedt, Newton, NC) along with 5-7 Kimble solid glass beads (4mm), 1 ml 1% SDS in water, 1-2 ml 100% ethanol and 1 ml hexane. Samples were then mixed using a Crescent Wig-L-Bug (model 3110B Densply International, Elgin, IL) twice for 1 min each. Samples were then centrifuged for 5 min at 1,000 rpm, and the organic layer collected, the aqueous layer was mixed with hexane again, vortexed, centrifuged, and processed twice more before the organic layer was dried down under nitrogen. Samples were run immediately. Reverse phase HPLC analyses with fluorometric detection of the tocopherol ether analog were conducted as described by Tirmenstein, M.A., et al. (23).
Eight mice are treated via pulmonary aerosol delivery with 40mg of α-TEA (5 mg/mouse) in 6 ml liposomes. The mice inhaled the aerosol over a period of 30 minutes until delivery was complete. Mice are sacrificed 0, 2, 6, or 24 hours after the treatment ended. Serum and tissue levels of α-TEA are determined by HPLC analyses (Fig. 7).

MDA-MB-435 GFP FL cells = assay: Tumor growth of MDA-MB-435 GFP FL breast cancer cells in nude mice; type: in vivo, Nu/Nu athymic nude mice; conditions: liposome gavage, 8 mg compound per day, 2 times per day; day 27
Description: Animals were given a total of 8 mg compound per day. […] Alpha-TEA liposome gavage reduced tumor growth by 68, 75, 78, 79 and 79% on days 27, 29, 31, 33, and 35, respectively (Fig. 15).
Animals were gavaged 3ppm methylselenocysteine (MSC) in water, α-TEA in liposome via aerosol, or gavaged 10 mg/kg b.w. trans-resveratrol (t-RES) in first 1:1, EtOH: physiological saline, and starting at day 24, 6.5% EtOH and 93.5% Neobee oil. A combination group was treated with each of the above three compounds, and a control group was treated with aerosolized liposome, 100 µl water, and 50 µl of the t-Res solvent. Animals were treated seven days a week, for 35+ days.

[6] = tested on: A2780 cisplatin-sensitive cell line; assay: Apoptosis of A2780 ovarian cancer cells in culture; type: cell-based, human; conditions: treated in culture with α-TEA
[7] = tested on: cp-70 human ovarian cancer cells; assay: Apoptosis of cp-70 ovarian cancer cells in culture; type: cell-based; conditions: treated in culture with α-TEA
66 cl.4-GFP cells [8] = assay: Tumor growth of 66 cl.4-GFP mammary tumor cells implanted in Balb/c mice; conditions: for mean tumor volume reduced in comparison to aerosol control: liposomal α-TEA/aerosol daily
Description: 66 cl.4-GFP cells were harvested by trypsinization, centrifuged, resuspended in McCoy's media, containing no supplements at a density of 2 X 10^5/100µl. Mice were injected in the inguinal area at a point equal distance between the 4th and 5th nipples on the right side using a 23 gauge needle.
as §1
Balb/c mice were injected with 200,000 66 cl.4 GFP cells subcutaneous in the mammary fat pad area between the 4th and 5th nipple on the right side of the body.
Mice are injected with 200,000 66cl.4 GFP murine mammary tumor cells as described on day 0. Treatments are initiated on day 9 when tumors reached 1-3 mm in size. […] Data represent the mean +/- Standard Error (SE), N = 10 mice for control and treatment groups.
Balb/c mice were injected s. c. with 2 X 10^5 66 cl.4-GFP cells in the inguinal area between the 4th and 5th nipple on the right side of the body. When tumors reached 2 x 2-4 x 4 mm (9 days after tumor injection), mice were placed into 5 groups ((Group 1: untreated control, Group 2: liposome/aerosol control, Group 3: liposomal α-TEA aerosol treatment, Group 4: peanut oil/gavage control, Group 5: α-TEA in peanut oil/gavage treatment) of 10 mice/group) such that the mean tumor volume of each group was closely matched. Daily treatments were initiated on day 9 after tumor injection.
Balb/c mice were injected with 200,000 66 cl.4 GFP cells subcutaneous in the mammary fat pad area between the 4th and 5th nipple on the right side of the body. […] Animals were treated with α-TEA in liposome, vitamin E succinate in liposome, or control liposome alone via aerosol, 7 days per week, for 21 days. Animals were given 75 mg compound via nebulization per day such that each animal received 36 µg compound per day.
The size of the tumors, 9 - 21 days after injection of 200,000 66 cl.4 GFP cells between the 4th and 5th nipple on the right side of each mouse, is determined. Treatments are initiated on day 9 after tumor inoculation. Each group consists of n=10 +/- SE. Gavage Treatment = Treatments of 5 mg of α-TEA in ethanol and peanut oil (0.1 ml volume) are administered daily starting on day 9 after tumor inoculation and continuing through day 21. Gavage Control = Mice received peanut oil and ethanol alone (0.ml volume)/daily, starting on day 9 after tumor inoculation and continuing through day 21. Data (tumor size) are depicted as the mean +/- standard error for days 9, 11, 13, 15, 17, 19, and 21.
Balb/c mice were injected with 200,000 66 cl.4 GFP cells subcutaneous in the mammary fat pad area between the 4th and 5th nipple on the right side of the body. […] Animals were treated with α-TEA in liposome, vitamin E succinate in liposome, or control liposome alone via oral gavage, 2 times per day, 7 days per week, for 21 days. Animals were given a total of 6 mg compound per day.

SMILES: Cc1c(C)c2c(c(C)c1OCC(=O)O)CC[C@@](C)(CCC[C@H](C)CCC[C@H](C)CCCC(C)C)O2 [α-TEA, 2,5,7,8-tetramethyl-(2R-(4R,8R,12-trimethyltridecyl)chroman-6-yloxy) acetic acid]
- apoptotic cells/field (mean ± S. E.) (66 cl.4-GFP tumors; liposomal α-TEA/aerosol treatment, three tumors): 2.04±0.23 apoptotic cells/field
- mean apoptotic values (TUNEL) increased (66 cl.4-GFP tumors; transplantable syngeneic mouse mammary cancer model, in comparison to controls): 30%
- apoptosis (66 cl.4-GFP cells [1]; 2.5 µg/ml): 5%
- apoptosis (66 cl.4-GFP cells [1]; 5 µg/ml): 6%
- apoptosis (time course) (66 cl.4-GFP cells [1]; 10 µg/ml, 2 days): 20%
- apoptosis (time course) (66 cl.4-GFP cells [1]; 10 µg/ml, 3 days): 35%
- apoptosis (time course) (66 cl.4-GFP cells [1]; 10 µg/ml, 4 days): 47%
- apoptosis (time course) (66 cl.4-GFP cells [1]; 10 µg/ml, 5 days): 58%
- apoptosis (66 cl.4-GFP cells [1]; 10 µg/ml): 34%
- apoptosis (66 cl.4-GFP cells [1]; 20 µg/ml): 50%
- 84 kDa cleavage fragment of PARP ([2]; 5 µg/ml): only intact PARP protein was detected
- 84 kDa cleavage fragment of PARP ([2]; 10 µg/ml): evident
- 84 kDa cleavage fragment of PARP ([2]; 20 µg/ml): evident
- colonies (average ± S. D.) (66 cl.4-GFP cells [3]; 1.25 µg/ml): 98 ± 20 colonies
- colonies (average ± S. D.) (66 cl.4-GFP cells [3]; 2.5 µg/ml): 21 ± 6 colonies
- colonies (66 cl.4-GFP cells [3]; 5 µg/ml): No colonies formed
- colonies (66 cl.4-GFP cells [3]; 10 µg/ml): No colonies formed
- inhibition at 1.25 µg/mL (66 cl.4-GFP cells [3]; Mus musculus, 240 h, 1.25 µg/ml, compared to EtOH control, read-out: decreased colony formation): 30%
- inhibition at 2.5 µg/mL (66 cl.4-GFP cells [3]; Mus musculus, 240 h, 2.5 µg/ml, compared to EtOH control, read-out: decreased colony formation): 85%
- inhibition at 5 µg/mL (66 cl.4-GFP cells [3]; Mus musculus, 240 h, 5 µg/ml, compared to EtOH control, read-out: decreased colony formation): 100%
- long term adverse effects ([4]; non-tumor bearing mice treated by aerosol or gavage for 17 days, kept eleven months): did not show any adverse effects
- body weight ([4]; tumor bearing mice, α-TEA liposome aerosol or gavage in ethanol/peanut oil, 5 mg/mouse daily, versus controls): no significant weight differences; also recorded: No differences in mean body weights
- serum and tissue levels of α-TEA ([5]; 0 hours after treatment ended): found only in the stomach tissue
- serum and tissue levels of α-TEA ([5]; 2 hours after treatment ended): present in the serum and stomach
- serum and tissue levels of α-TEA ([5]; 6 hours after treatment ended): present in the liver and stomach
- serum and tissue levels of α-TEA ([5]; 24 hours after treatment ended): present in the liver and stomach
- reduced tumor growth (MDA-MB-435 GFP FL cells): 68%
- apoptosis [6]: undergo apoptosis
- apoptosis [7]: undergo apoptosis
- tumor size at the inoculation site versus gavage control (66 cl.4-GFP cells [8]; 5 mg/day/mouse α-TEA in ethanol and peanut oil by gavage): no significant differences in tumor weights; also recorded: did not differ
- Inhibition (%) Tumor Growth (66 cl.4-GFP cells [8]; Aerosol, in nebulizer per mouse: α-TEA 5 mg/d, 9NC 2 µg/d, combination 5 mg+2µg/d): 65%
- Inhibition (%) Tumor Growth (66 cl.4-GFP cells [8]; EtOH/P Oil, Gavage, 5 mg/d): 0%
- Inhibition (%) Tumor Growth (66 cl.4-GFP cells [8]; Liposomal, Aerosol, 5 mg/d): 70%
- Inhibition (%) Tumor Growth (66 cl.4-GFP cells [8]; Liposomal, Gavage, 3 mg/2Xd): 70%
- size of tumors less than aerosol only control group (66 cl.4-GFP cells [8]; aerosol α-TEA liposomes 5 mg/mouse daily, sacrifice day 25, 16 days after treatment initiation): 61%
- mean tumor volume reduced in comparison to aerosol control (66 cl.4-GFP cells [8]; day 9 of treatment): 23%
- mean tumor volume reduced in comparison to aerosol control (66 cl.4-GFP cells [8]; day 11 of treatment): 41%
- mean tumor volume reduced in comparison to aerosol control (66 cl.4-GFP cells [8]; day 13 of treatment): 50%
- mean tumor volume reduced in comparison to aerosol control (66 cl.4-GFP cells [8]; day 15 of treatment): 67%
- mean tumor volume reduced in comparison to aerosol control (66 cl.4-GFP cells [8]; day 17 of treatment): 61%
- reduced tumor growth (66 cl.4-GFP cells [8]; liposome aerosol, 36 µg compound per day, 21 days, day 15): 64%
- reduced tumor growth (66 cl.4-GFP cells [8]; liposome aerosol, 36 µg compound per day, 21 days, day 17): 76%
- reduced tumor growth (66 cl.4-GFP cells [8]; liposome aerosol, 36 µg compound per day, 21 days, day 19): 69%
- reduced tumor growth (66 cl.4-GFP cells [8]; liposome aerosol, 36 µg compound per day, 21 days, day 21): 67%
- reduced tumor growth (66 cl.4-GFP cells [8]; liposome gavage, 6 mg compound per day, 2 times per day, day 15): 85%
- reduced tumor growth (66 cl.4-GFP cells [8]; liposome gavage, 6 mg compound per day, 2 times per day, day 17): 85%
- reduced tumor growth (66 cl.4-GFP cells [8]; liposome gavage, 6 mg compound per day, 2 times per day, day 19): 80%
- reduced tumor growth (66 cl.4-GFP cells [8]; liposome gavage, 6 mg compound per day, 2 times per day, day 21): 70%
